Results taken from PubChem BioAssay AID248 (DTP/NCI, 2004).
Several values for one entry are separate records, joined by “and”; a condition that tells them apart may be missing. Equal values may be shown once. Toxic doses and inconclusive results are not listed. Rule as the data show it: active = T/C of 150% or more; inactive = T/C below 125%.

System: L1210 leukemia ip in BDF1 mice, survival T/C
Assay: NCI In Vivo Anticancer Drug Screen. Data for tumor model L1210 Leukemia (intraperitoneal) in B6D2F1 (BDF1) mice
Conditions: endpoint: mean survival time, higher = longer survival
In short: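 Tumor cells were implanted, animals were treated, and survival was followed. The result divides the treated measurement by the vehicle-control measurement.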

[1] = dose: 50.0 mg/kg/injection, schedule: Q01DX009 (ip), vehicle: Klucel (hydroxypropylcellulose) (HPC)
[2] = dose: 100.0 mg/kg/injection, schedule: Q01DX001 (ip), vehicle: Klucel (hydroxypropylcellulose) (HPC)
[3] = dose: 100.0 mg/kg/injection, schedule: Q01DX009 (ip), vehicle: Klucel (hydroxypropylcellulose) (HPC)
[4] = dose: 100.0 mg/kg/injection, schedule: Q04DX003 (ip), vehicle: Klucel (hydroxypropylcellulose) (HPC)
[5] = dose: 200.0 mg/kg/injection, schedule: Q01DX001 (ip), vehicle: Klucel (hydroxypropylcellulose) (HPC)
[6] = dose: 200.0 mg/kg/injection, schedule: Q04DX003 (ip), vehicle: Klucel (hydroxypropylcellulose) (HPC)
[7] = dose: 400.0 mg/kg/injection, schedule: Q01DX001 (ip), vehicle: Klucel (hydroxypropylcellulose) (HPC)
[8] = dose: 75.0 mg/kg/injection, schedule: Q01DX001 (ip), vehicle: saline
[9] = dose: 25.0 mg/kg/injection, schedule: Q01DX009 (ip), vehicle: saline
[10] = dose: 100.0 mg/kg/injection, schedule: Q01DX001 (ip), vehicle: carboxymethylcellulose (CMC)
[11] = dose: 200.0 mg/kg/injection, schedule: Q01DX001 (ip), vehicle: carboxymethylcellulose (CMC)
[12] = dose: 400.0 mg/kg/injection, schedule: Q01DX001 (ip), vehicle: carboxymethylcellulose (CMC)
[13] = dose: 200.0 mg/kg/injection, schedule: Q01DX009 (ip), vehicle: Klucel (hydroxypropylcellulose) (HPC)
[14] = dose: 400.0 mg/kg/injection, schedule: Q01DX009 (ip), vehicle: Klucel (hydroxypropylcellulose) (HPC)
[15] = dose: 400.0 mg/kg/injection, schedule: Q04DX003 (ip), vehicle: Klucel (hydroxypropylcellulose) (HPC)
[16] = dose: 50.0 mg/kg/injection, schedule: Q01DX009 (ip), vehicle: saline with Tween-80
[17] = dose: 100.0 mg/kg/injection, schedule: Q01DX009 (ip), vehicle: saline with Tween-80
[18] = dose: 100.0 mg/kg/injection, schedule: Q04DX003 (ip), vehicle: saline with Tween-80
[19] = dose: 200.0 mg/kg/injection, schedule: Q04DX003 (ip), vehicle: saline with Tween-80
[20] = dose: 400.0 mg/kg/injection, schedule: Q04DX003 (ip), vehicle: saline with Tween-80
[21] = dose: 100.0 mg/kg/injection, schedule: Q01DX001 (ip), vehicle: saline
[22] = dose: 200.0 mg/kg/injection, schedule: Q01DX001 (ip), vehicle: saline
[23] = dose: 400.0 mg/kg/injection, schedule: Q01DX001 (ip), vehicle: saline

Measured: T/C

COC(=O)c1[nH]cnc1/N=N/Nc1ccc(Cl)c(Cl)c1
inactive: dose: 50.0 mg/kg/injection, schedule: Q01DX001 (ip), vehicle: other 94 % of control | dose: 100.0 mg/kg/injection, schedule: Q01DX001 (ip), vehicle: other 95 % of control and 103 % of control | dose: 200.0 mg/kg/injection, schedule: Q01DX001 (ip), vehicle: other 105 % of control and 110 % of control | dose: 400.0 mg/kg/injection, schedule: Q01DX001 (ip), vehicle: other 97 % of control and 100 % of control

CC(=O)Oc1c2c(c(CC=C(C)C)c3c1C(=O)C1=CC4CC5C(C)(C)OC(C/C=C(/C)C(=O)O)(C4=O)C15O3)OC(C)(CCC=C(C)C)C=C2 (stereo unspecified)
inactive: [1] 109 % of control | dose: 50.0 mg/kg/injection, schedule: Q04DX003 (ip), vehicle: Klucel (hydroxypropylcellulose) (HPC) 103 % of control | [2] 106 % of control | [3] 91 % of control | [4] 97 % of control | [5] 114 % of control | [6] 105 % of control | [7] 110 % of control

CCCOc1cccc(C(=N)N)c1
inactive: dose: 75.0 mg/kg/injection, schedule: Q01DX001 (ip), vehicle: Klucel (hydroxypropylcellulose) (HPC) 97 % of control | dose: 150.0 mg/kg/injection, schedule: Q01DX001 (ip), vehicle: Klucel (hydroxypropylcellulose) (HPC) 96 % of control | dose: 300.0 mg/kg/injection, schedule: Q01DX001 (ip), vehicle: Klucel (hydroxypropylcellulose) (HPC) 96 % of control

C(=C\c1ccccc1)/C[n+]1cccc2ccccc21
inactive: [8] 89 % of control

CCC1CN2C(=N1)c1ccccc1-c1cc(Cl)cc(Cl)c12 (stereo unspecified)
inactive: dose: 100.0 mg/kg/injection, schedule: Q01DX005 (ip), vehicle: Klucel (hydroxypropylcellulose) (HPC) 88 % of control | dose: 100.0 mg/kg/injection, schedule: Q04DX002 (ip), vehicle: Klucel (hydroxypropylcellulose) (HPC) 107 % of control | dose: 200.0 mg/kg/injection, schedule: Q01DX005 (ip), vehicle: Klucel (hydroxypropylcellulose) (HPC) 94 % of control | dose: 200.0 mg/kg/injection, schedule: Q04DX002 (ip), vehicle: Klucel (hydroxypropylcellulose) (HPC) 101 % of control | dose: 400.0 mg/kg/injection, schedule: Q01DX005 (ip), vehicle: Klucel (hydroxypropylcellulose) (HPC) 102 % of control | dose: 400.0 mg/kg/injection, schedule: Q04DX002 (ip), vehicle: Klucel (hydroxypropylcellulose) (HPC) 101 % of control

CCCCCCCCCC(=O)CCCCC
inactive: dose: 100.0 mg/kg/injection, schedule: Q01DX009 (ip), vehicle: other 100 % of control | dose: 200.0 mg/kg/injection, schedule: Q01DX009 (ip), vehicle: other 98 % of control | dose: 400.0 mg/kg/injection, schedule: Q01DX009 (ip), vehicle: other 93 % of control

CNCC(O)c1cccc(O)c1 (stereo unspecified)
inactive: dose: 1.56 mg/kg/injection, schedule: Q01DX009 (ip), vehicle: saline 94 % of control | dose: 3.12 mg/kg/injection, schedule: Q01DX009 (ip), vehicle: saline 98 % of control | dose: 3.12 mg/kg/injection, schedule: Q04DX003 (ip), vehicle: saline 109 % of control | dose: 6.25 mg/kg/injection, schedule: Q01DX009 (ip), vehicle: saline 94 % of control | dose: 6.25 mg/kg/injection, schedule: Q04DX003 (ip), vehicle: saline 104 % of control | dose: 12.5 mg/kg/injection, schedule: Q01DX009 (ip), vehicle: saline 122 % of control | dose: 12.5 mg/kg/injection, schedule: Q04DX003 (ip), vehicle: saline 96 % of control | [9] 100 % of control | dose: 25.0 mg/kg/injection, schedule: Q04DX003 (ip), vehicle: saline 113 % of control

CCC1=CCC=CC1
inactive: dose: 50.0 mg/kg/injection, schedule: Q01DX001 (ip), vehicle: carboxymethylcellulose (CMC) 101 % of control | [10] 104 % of control | [11] 104 % of control | [12] 109 % of control

COC(=O)CC(=O)c1ccc(C)cc1
inactive: [3] 101 % of control | [4] 108 % of control | [13] 95 % of control | [6] 111 % of control | [14] 104 % of control | [15] 95 % of control

O=CC(=O)c1ccccc1
inactive: dose: 25.0 mg/kg/injection, schedule: Q01DX009 (ip), vehicle: saline with Tween-80 100 % of control | [9] 101 % of control | [16] 105 % of control | dose: 50.0 mg/kg/injection, schedule: Q01DX009 (ip), vehicle: saline 104 % of control | dose: 75.0 mg/kg/injection, schedule: Q01DX009 (ip), vehicle: saline with Tween-80 98 % of control | [17] 107 % of control

Cc1ccc(NS(=O)(=O)c2ccc(Cl)cc2)cc1Cl
inactive: dose: 25.0 mg/kg/injection, schedule: Q01DX009 (ip), vehicle: Klucel (hydroxypropylcellulose) (HPC) 94 % of control | [1] 99 % of control | [3] 96 % of control | [4] 106 % of control | [13] 99 % of control | [6] 96 % of control | [14] 88 % of control | [15] 100 % of control

CSc1nnc2sc(C)nn12
inactive: [10] 104 % of control | [11] 104 % of control | [12] 102 % of control

N=C(CNC(=O)OCc1ccccc1)N1CCCC1C(=O)O (stereo unspecified)
inactive: [18] 100 % of control | [19] 101 % of control | [20] 101 % of control

CC(=O)C(Cl)C(C)=O.CC(=O)C(Cl)C(C)=O.CO.CO.[Ni]
inactive: dose: 12.0 mg/kg/injection, schedule: Q01DX009 (ip), vehicle: other 91 % of control | dose: 25.0 mg/kg/injection, schedule: Q01DX009 (ip), vehicle: other 93 % of control | [21] 112 % of control | [22] 89 % of control

CSc1nccnc1C
inactive: [1] 119 % of control | [3] 96 % of control | [13] 105 % of control

CC(C)(C)OC(=O)CCSC(C)(C)C
inactive: [2] 96 % of control | [5] 96 % of control | [7] 96 % of control

Cc1cc(C)c(NC(=O)NCCCl)c(C)c1
inactive: [16] 103 % of control | [17] 109 % of control | [18] 91 % of control | dose: 200.0 mg/kg/injection, schedule: Q01DX009 (ip), vehicle: saline with Tween-80 116 % of control | [19] 93 % of control | [20] 117 % of control

CN(CCNC(=O)C1CCCCC1C(=O)O)c1ccccc1 (stereo unspecified)
inactive: [3] 98 % of control | [13] 92 % of control | [14] 96 % of control

CNC(=O)Nc1c(O)nc(N)[nH]c1=O
inactive: dose: 37.5 mg/kg/injection, schedule: Q01DX001 (ip), vehicle: saline 97 % of control | [8] 103 % of control | dose: 150.0 mg/kg/injection, schedule: Q01DX001 (ip), vehicle: saline 105 % of control

Nc1ccc(S(=O)(=O)c2ccc(NCCc3ccccn3)cc2)cc1
inactive: [18] 97 % of control | [19] 105 % of control | [20] 100 % of control

CCN(CC)CCn1cnc2cc([N+](=O)[O-])ccc21
inactive: dose: 20.0 mg/kg/injection, schedule: Q01DX001 (ip), vehicle: Klucel (hydroxypropylcellulose) (HPC) 101 % of control | dose: 40.0 mg/kg/injection, schedule: Q01DX001 (ip), vehicle: Klucel (hydroxypropylcellulose) (HPC) 98 % of control

CC(=O)OC1=CC2(OC(C)=O)CCC1C1C(=O)OC(=O)C12 (stereo unspecified)
inactive: [21] 102 % of control | dose: 100.0 mg/kg/injection, schedule: Q04DX003 (ip), vehicle: acetone 93 % of control | [22] 91 % of control | dose: 200.0 mg/kg/injection, schedule: Q04DX003 (ip), vehicle: acetone 96 % of control | [23] 90 % of control

C=CC[Si](CC=C)(CC=C)OCC
inactive: dose: 150.0 mg/kg/injection, schedule: Q01DX001 (ip), vehicle: other 95 % of control | dose: 300.0 mg/kg/injection, schedule: Q01DX001 (ip), vehicle: other 101 % of control

COc1ccc([N+](=O)[O-])cc1/C=C/C=O
inactive: [21] 100 % of control | [22] 92 % of control | [23] 100 % of control
